Data taken from PubChem BioAssay (NCI).
“And” between values parts separate entries of the source, which are not always exact repeats. Equal entries are not always repeated.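 Step 1: Grow cells in 96-well plates. Step 2: Expose to compound for 48 hours at 5 concentrations. Step 3: Interpolate endpoints linearly; if unreached, use highest concentration. The concentration for 50% growth inhibition is given as GI50. TGI: concentration producing complete growth inhibition.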

Tested on: MDA-MB-468 breast
Test: NCI anticancer screen, dose series, 48 h

| SMILES | GI50 | TGI |
| --- | --- | --- |
| CO/N=C(\c1ccccc1)c1cnn(-c2ccccc2)c1N | > 25000 nM | > 25 µM |
| COCCNCC(O)Cn1c2ccc(Cl)cc2c2cc(Cl)ccc21 (stereo not given) | 1780 nM | 3.85 µM |
| O=C1Nc2ccc(Cl)cc2/C1=C\c1c(-c2ccc(F)cc2)nc2ccccn12 | 2080 nM | 6.19 µM |
| COC[C@H]1C(=O)NCC(=O)N2NCCC[C@H]2C(=O)N(O)[C@H](C)C(=O)O[C@@H](C(C)C)[C@H](NC(=O)[C@](C)(O)[C@]2(O)CC[C@@H](CC(C)C)[C@H](C)O2)C(=O)N2NCCC[C@@H]2C(=O)N1O | 14 nM | 0.0311 µM |
| COc1ccc2c(c1)Oc1nc(N)c(C#N)c(N)c1C2Sc1ccc(SC)cc1 (stereo not given) | 1750 nM | 3.59 µM |
| COc1ccc(OC)c(/C=C/[N+](=O)[O-])c1 | 1220 nM | 2.68 µM |
| O=C1Nc2ccc(F)c3c(OCCO)cc(-c4ccc[nH]4)c1c23 | 528 nM | 1.83 µM |
| OCCN1CCN(CCCN2c3ccccc3Sc3ccc(C(F)(F)F)cc32)CC1 | 827 nM and 3630 nM and 2630 nM | 2.08 µM and 15.4 µM and 11.3 µM |
| CS(=O)(=O)c1nccc(-c2c(-c3cccc(OCc4ccc(F)cc4)c3)nc3sccn23)n1 | 1990 nM | 3.98 µM |
| O=C1C=C(SCCO)C(=O)c2ccccc21 | 1510 nM | 3.46 µM |
| CC1(C)CCC(S(=O)(=O)c2ccc3c(c2)/C(=N\O)c2cc(S(=O)(=O)N4CCC(O)(c5cccc(C(F)(F)F)c5)CC4)ccc2-3)CC1 | 17.6 nM | 0.0356 µM |
| O=C(CC12CC3CC(CC(C3)C1)C2)NCCOCCOCCNC(=O)c1cc2c(o1)C(=O)c1ccccc1C2=O | 1210 nM | 3.3 µM |
| Cc1c(Cl)cccc1NC(=O)CC1Sc2ccccc2NC1=O (stereo not given) | 12800 nM | 37.4 µM |
| COc1cc(O)c2c(c1)[C@H]1O[C@@H]1C[C@H](O)[C@H](O)C(=O)/C=C\C[C@H](C)OC2=O | 1100 nM | 5.64 µM |
| Cc1nc2sc(C(=O)Nc3cccc4ccccc34)c(N)c2cc1C(C)O (stereo not given) | 126 nM | 0.416 µM |
| CN1CCN(c2ccc(Nc3nc(NCCCNS(=O)(=O)c4cccc5ccccc45)c4sccc4n3)cc2)CC1 | 2100 nM | 6.23 µM |
| Cc1ccc(NS(=O)(=O)c2ccc(-c3cnc(C4CC4)o3)cc2)cc1 | 1170 nM | 5.83 µM |
| COc1ccc(-c2cc3c4c(nc5ccccc5c4c2)CC(c2cc(OC)c(OC)c(OC)c2)O3)cc1 (stereo not given) | 2630 nM | 10.5 µM |
| Cn1ncc2cc(-c3cnc(N)c(Cl)c3N3CCC4(CCNC4=O)CC3)ccc21 | 16400 nM | 63.1 µM |
| C=C1C(=O)O[C@H]2[C@H]1CC/C(COC(=O)OCCCCCOC(=O)OC/C1=C/CC[C@@]3(C)O[C@H]3[C@H]3OC(=O)C(=C)[C@@H]3CC1)=C\CC[C@@]1(C)O[C@@H]21 | 186 nM | 0.458 µM |
| COc1cnc2c(c1)C(=O)c1c-2n(CCCn2ccnc2)c(=O)c2cc(OC)c(OC)cc12 | 51.1 nM | 0.358 µM |
| CN(C(=O)c1ccc(F)cc1C(F)(F)F)C1CCN(c2nnc(-c3ccnn3C)c3ccccc23)CC1 | 7100 nM | 61.4 µM |
| COc1ccc2c(c1)O/C(=C\c1cccc(OCC(=O)Nc3nc4ccccc4s3)c1)C2=O | 6040 nM | > 100 µM |
| Cn1ncc2c(Nc3ccc(Br)cc3)nc(Nc3ccc(Br)cc3)nc21 | 2110 nM | 7.78 µM |
| OCC1SC(n2cnc3cncnc32)C(O)C1O (stereo not given) | > 100000 nM | > 100 µM |
| Brc1c[n+](Cc2ccc3ccccc3c2)cn1Cc1ccc2ccccc2c1 | 624 nM | 2.57 µM |
| O=C(NCc1cn(Cc2cccc(Oc3ccccc3)c2)nn1)c1cccnc1Nc1ccccc1 | 2880 nM | 57.4 µM |
| O=C(c1ccccc1)c1ccc(-c2ccc(O)cc2)cc1 | 1940 nM | 8.86 µM |
| COc1ccc(/C=C2/CN(C(=O)c3ccccc3F)C/C(=C\c3ccc(OC)cc3)C2=O)cc1 | 1910 nM | 4.49 µM |
| CCC(=O)Sc1ccccc1C(=O)Nc1ccc(Cl)cc1 | 9970 nM | > 100 µM |
